Results: patent publication US20250345356A1, “TIRAPAZAMINE COMPOSITIONS AND METHODS” (priority 2024, published 2025)
Like-named read-outs stand apart in the source and are kept apart here.

How the values were obtained:
[1] = tested on: advanced head and neck cancer; details: intent-to-treat, with radiotherapy 70 Gy; cited from earlier work
[2] = PK of TPZ and metabolites SR4317 and SR4330 after intra-arterial injection of TPZ in NS vs HPβCD; format: in vivo, Sprague Dawley rats; details: for dose proportionality of plasma concentrations: 3.33 mg/kg vs. 7 mg/kg in either solvent; for reduction of plasma concentrations in the curve of HPβCD than that of NS: after TPZ in 1% HPβCD vs NS; for AUClast, HβC Mean / Cmax, HβC Mean / AUClast, Normal Saline (NS) Mean / Cmax, Normal Saline (NS) Mean: rats
Text: Purpose of the study: To evaluate the pharmacokinetics (PK) of tirapazamine and its metabolites, SR4317 and SR4330 [Graham, M A et al. Cancer Chemother. Pharmacol. (1997) 40 (1): 1-10], after injection of TPZ in 1% HPβCD or normal saline.
Animals: Twenty-four female (12) and male (12) Sprague Daley (SD) rats, weight 200-250 grams, respectively, with femoral artery and jugular vein cannulated, were purchased from, Taconic. Two extra cannulated male and female rates were used to test tolerability with buffer. Each rate was housed individually to safeguard the vessel catheters.
The study parameters are shown in Table 22. began after a 3-day period of adjustment to the animal facility. The study compound was injected into the femoral artery catheter (FAC at 2-1 m (by slow injection. Blood samples were collected from a jugular vein catheter (JVC) at 6 timepoints: 0 (baseline) and after drug administration at 15 and 30 minutes, 1 hr, 2 hr, and 6 hours. The volume of blood sample for each time point was approximately 0.6 mL. Plasma samples were collected in tubes containing sodium heparin as anti-coagulant. Plasma was prepared and frozen in −80° C. Rats were euthanized after the last blood sample (euthanized after the 6 hr time point).
Male rats were around 250 grams, and female 200 grams. There were 8 groups with Groups 1-4 females, and […]. Each group had 3 rats. TPZ was dissolved in NS or […] at a concentration 0.7 mg/mL.
The concentrations of TPZ and its metabolites, SR4317 and SR4330, in rat plasma samples were analyzed using liquid chromatography Tandem Mass Spectrometry (LC-MS) by Primera Analytical Solutions Corp (Princeton, NJ). Standards for TPZ, SR4317 and SR4330 were provided by Teclison, Inc. (Princeton, NJ) for calibration. All analytical data were reviewed for completeness and accuracy. Data transferred manually was cross-checked against source data which was part of the study raw data.
LC-MS analysis was conducted with Sciex 4000 with a Shimadzu LC-30 System.
The concentration data was imported and plotted with SAS program as ADPC (Analysis Dataset of Pharmacokinetics Concentrations) dataset. PK parameters calculated based on ADPC were output as an Analysis Dataset of Pharmacokinetics Parameters (ADPP) dataset.
PK parameters of each profile were calculated by non-compartmental analysis using SAS programming. BLQ (Below the Limit of Quantification) observation prior to the first measurable concentration was imputed as zero, otherwise, the BLQ observation was left as missing.
An apparent first-order terminal elimination rate constant (Kel) was calculated by linear least-squares regression analysis using at least three points (excluding Cmax) in the terminal log-linear phase. Uniform weighting was adopted when performing regression analysis. Linear-up/log-down approach was utilized to calculate AUC.
A linear model was built to evaluate the effect of solution on the PK parameters, adjusting for sex and dose. The model included sex (F, M), solution type (Normal saline, Hydroxypropyl-beta-Cyclodextrin “HP-beta-CD”), and dose (mg) as fixed effects. Sex and solution type are categorical variables (meaning a variable based on a qualitative, not numerical, property) and dose is a continuous variable (meaning a random variable that can take on an infinite number of values within a certain interval that represents measurable data). Separate models were built for each combination of analyte (TPZ, SR4317 and SR4330) and PK parameters (AUClast and Cmax) using the BY statement, which divides the observations from an input data set into groups for processing.
The difference of lease squared means between solution types was estimated. 95% confidence intervals (CI), and p-values for the difference were presented. The significance level (alpha) was set at 0.05, meaning that a p-value less than 0.05 was considered statistically significant.

HCC = details: cited from earlier work
[3] = cited from earlier work
[4] = mice, cited from earlier work
[5] = 1-week intravenous study, single dose level of 1 g; cited from earlier work
[6] = intra-arterial TPZ 3.33 mg/kg in HPβCD
[7] = intra-arterial TPZ 3.33 mg/kg in NS
[8] = intra-arterial TPZ 7 mg/kg in HPβCD
[9] = intra-arterial TPZ 7 mg/kg in NS

| Compound | AUClast HβC/NS Ratio (%) ([2]; 3.33 mg/kg) | Cmax HβC/NS Ratio (%) ([2]; 3.33 mg/kg) | dose proportionality of plasma concentrations [2] | AUClast HβC/NS Ratio (%) ([2]; 7 mg/kg) | Cmax HβC/NS Ratio (%) ([2]; 7 mg/kg) | reduction of plasma concentrations in the curve of HPβCD than that of NS [2] | AUClast, HβC Mean [2, 6] | Cmax, HβC Mean [2, 6] | AUClast, Normal Saline (NS) Mean [2, 7] | Cmax, Normal Saline (NS) Mean [2, 7] | AUClast, HβC Mean [2, 8] | Cmax, HβC Mean [2, 8] | AUClast, Normal Saline (NS) Mean [2, 9] | Cmax, Normal Saline (NS) Mean [2, 9] | further results |
| --- | --- | --- | --- | --- | --- | --- | --- | --- | --- | --- | --- | --- | --- | --- | --- |
| N.N.[Cl][Pt][Cl] [CIS, cisplatin] | – | – | – | – | – | – | – | – | – | – | – | – | – | – | 2-year OS rates [1]: 65.7% |
| Nc1nc2ccccc2[n+]([O-])n1 [SR4317] | 78.09% | 80.62% | dose proportional effect was observed | 78.86% | 88.17% | 20-30% | 479.96 ng·h/mL | 490.17 ng/mL | 614.61 ng·h/mL | 608.00 ng/mL | 1210.97 ng·h/mL | 1122.67 ng/mL | 1535.52 ng·h/mL | 1273.33 ng/mL | – |
| Nc1nnc2ccccc2n1 [SR4330] | 73.09% | 77.65% | dose proportional effect was observed | 74.37& % | 89.31% | 20-30% | 99.89 ng·h/mL | 81.88 ng/mL | 136.67 ng·h/mL | 105.45 ng/mL | 385.93 ng·h/mL | 254.83 ng/mL | 518.92 ng·h/mL | 285.33 ng/mL | half-life compared with TPZ and SR4317 ([2]; rat plasma): longer than TPZ and SR4317 |
| COc1cccc2c1C(=O)c1c(O)c3c(c(O)c1C2=O)C[C@@](O)(C(=O)CO)C[C@@H]3O[C@H]1C[C@H](N)[C@H](O)[C@H](C)O1 [doxorubicin] | – | – | – | – | – | – | – | – | – | – | – | – | – | – | necrosis in the HCC within the territory of HAL (HCC; Day 1 post-treatment, tirapazamine 3 mg/kg, doxorubicin 10 mg/kg, transient left HAL): about 5%; pathological changes in HCCs (HCC; Day 7, 10 mg/kg with left HAL): Little to no pathological changes |
| 2-hydroxypropyl-β-cyclodextrin [HPβCD] | – | – | – | – | – | – | – | – | – | – | – | – | – | – | daily dose considered non-toxic ([3]; at least for 14 days): < 16 g; tolerability ([3]; daily oral doses of 4-8 g for at least 2 weeks): well tolerated and safe; adverse effects ([3]; oral daily doses of 16-24 g for 14 days, healthy volunteers): increased incidence of soft stools and diarrhea; lethality ([4]; single intravenous dose of up to 2 g/kg): not lethal; acute toxicity ([4]; up to 10 gram/kg intra-peritoneal (i.p.) injection): neither lethal nor did it produce any toxicity; adverse effects [5]: no adverse effects were reported |
